Structures can show the parent of a compound that is named as a salt. Where two headings read alike, the source gives them in different places.
Columns and labels:
Format in all cases: cell-based
E. coli 257 = experiment: In vitro antibacterial activity (MIC, Mueller-Hinton broth); conditions: Escherichia coli, 257, E. coli 257; read-out: MIC
Method in brief: (§1)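 Inoculated with 1.5 μl per well of a 10^-2 overnight-culture dilution, Mueller-Hinton broth dilutions (128–0.008 μg/ml) are incubated overnight at 37° C. No-growth endpoint defines MIC.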

P. aeruginosa POW 151 = experiment: In vitro antibacterial activity (MIC); conditions: Pseudomonas aeruginosa, POW151
Method in brief: as §1

K. pneumoniae A = experiment: In vitro antibacterial activity (MIC); conditions: Klebsiella pneumoniae, K. pneumoniae A; read-out: MIC
Method in brief: as §1

S. aureus Smith = experiment: In vitro antibacterial activity (MIC); conditions: Staphylococcus aureus, S. aureus Smith; read-out: MIC
Method in brief: as §1

P. vulgaris 101 = experiment: In vitro antibacterial activity (MIC); conditions: Proteus vulgaris, 101, P. vulgaris 101; read-out: MIC
Method in brief: as §1

P. mirabilis 620A = experiment: In vitro antibacterial activity (MIC); conditions: Proteus mirabilis, 620A, P. mirabilis 620A; read-out: MIC
Method in brief: as §1

S. aureus Giorgio = experiment: In vitro antibacterial activity (MIC); conditions: Staphylococcus aureus, S. aureus Giorgio; read-out: MIC
Method in brief: as §1

K. pneumoniae 8357 = experiment: In vitro antibacterial activity (MIC); conditions: Klebsiella pneumoniae, 8357, K. pneumoniae 8357; read-out: MIC
Method in brief: as §1

E. aerogenes 8 = experiment: In vitro antibacterial activity (MIC); conditions: Klebsiella aerogenes; E. aerogenes 8; read-out: MIC
Method in brief: as §1

E. aerogenes 83 = experiment: In vitro antibacterial activity (MIC); conditions: Klebsiella aerogenes, 83, E. aerogenes 83; read-out: MIC
Method in brief: as §1

S. marcescens SM = experiment: In vitro antibacterial activity (MIC); conditions: Serratia marcescens, read-out: MIC
Method in brief: as §1

P. aeruginosa 6148B = experiment: In vitro antibacterial activity (MIC); conditions: Pseudomonas aeruginosa, read-out: MIC
Method in brief: as §1

E. cloacae P99 = experiment: In vitro antibacterial activity (MIC); conditions: Enterobacter cloacae, P99, E. cloacae P99
Method in brief: as §1

E. cloacae 24 = experiment: In vitro antibacterial activity (MIC); conditions: Enterobacter cloacae, 24, E. cloacae 24; read-out: MIC
Method in brief: as §1

K. pneumoniae 4964 = experiment: In vitro antibacterial activity (MIC); conditions: Klebsiella pneumoniae, 4964, K. pneumoniae 4964; read-out: MIC
Method in brief: as §1

E. cloacae 9570A = experiment: In vitro antibacterial activity (MIC); conditions: Enterobacter cloacae, read-out: MIC
Method in brief: as §1

E. cloacae 5699 = experiment: In vitro antibacterial activity (MIC); conditions: Enterobacter cloacae, 5699, E. cloacae 5699; read-out: MIC
Method in brief: as §1

P. mirabilis 90 = experiment: In vitro antibacterial activity (MIC); conditions: Proteus mirabilis, 90, P. mirabilis 90; read-out: MIC
Method in brief: as §1

C. freundii 8ASM = experiment: In vitro antibacterial activity (MIC); conditions: Citrobacter freundii, 8ASM, C. freundii 8ASM; read-out: MIC
Method in brief: as §1

K. pneumoniae HE7 = experiment: In vitro antibacterial activity (MIC); conditions: Klebsiella pneumoniae; K. pneumoniae HE7; read-out: MIC
Method in brief: as §1

P. vulgaris ATCC 6380 = experiment: In vitro antibacterial activity (MIC); conditions: Proteus vulgaris, ATCC6380, P. vulgaris ATCC 6380; read-out: MIC
Method in brief: as §1

P. mirabilis 2 = experiment: In vitro antibacterial activity (MIC); conditions: Proteus mirabilis, 2, P. mirabilis 2; read-out: MIC
Method in brief: as §1

K. pneumoniae 503-994 = experiment: In vitro antibacterial activity (MIC); conditions: Klebsiella pneumoniae, 503994, K. pneumoniae 503-994; read-out: MIC
Method in brief: as §1

P. vulgaris 100 = experiment: In vitro antibacterial activity (MIC); conditions: Proteus vulgaris; P. vulgaris 100; read-out: MIC
Method in brief: as §1

E. cloacae 214 = experiment: In vitro antibacterial activity (MIC); conditions: Enterobacter cloacae, 214, E. cloacae 214; read-out: MIC
Method in brief: as §1

E. aerogenes 503-478 = experiment: In vitro antibacterial activity (MIC); conditions: Klebsiella aerogenes, 503478, E. aerogenes 503-478; read-out: MIC
Method in brief: as §1

S. marcescens 5805 = experiment: In vitro antibacterial activity (MIC); conditions: Serratia marcescens, 5805, S. marcescens 5805; read-out: MIC
Method in brief: as §1

S. marcescens S5 = experiment: In vitro antibacterial activity (MIC); conditions: Serratia marcescens, S5, S. marcescens S5; read-out: MIC
Method in brief: as §1

S. marcescens S2 = experiment: In vitro antibacterial activity (MIC); conditions: Serratia marcescens; S. marcescens S2; read-out: MIC
Method in brief: as §1

E. cloacae 9295 = experiment: In vitro antibacterial activity (MIC); conditions: Enterobacter cloacae, 9295, E. cloacae 9295; read-out: MIC
Method in brief: as §1

P. aeruginosa 503-820 = experiment: In vitro antibacterial activity (MIC); conditions: Pseudomonas aeruginosa, 503820; P. aeruginosa 503-820; read-out: MIC
Method in brief: as §1

P. aeruginosa 8780 = experiment: In vitro antibacterial activity (MIC); conditions: Pseudomonas aeruginosa; P. aeruginosa 8780; read-out: MIC
Method in brief: as §1

P. mirabilis 190 = experiment: In vitro antibacterial activity (MIC); conditions: Proteus mirabilis, 190, P. mirabilis 190; read-out: MIC
Method in brief: as §1

S. marcescens S147 = experiment: In vitro antibacterial activity (MIC); conditions: Serratia marcescens; S. marcescens S147; read-out: MIC
Method in brief: as §1

S. aureus 1059B = experiment: In vitro antibacterial activity (MIC); conditions: Staphylococcus aureus, read-out: MIC
Method in brief: as §1

P. mirabilis 503-1136 = experiment: In vitro antibacterial activity (MIC); conditions: Proteus mirabilis, 5031136, P. mirabilis 503-1136; read-out: MIC
Method in brief: as §1

P. aeruginosa 5712 = experiment: In vitro antibacterial activity (MIC); conditions: Pseudomonas aeruginosa; P. aeruginosa 5712; read-out: MIC
Method in brief: as §1

K. pneumoniae 5096 = experiment: In vitro antibacterial activity (MIC); conditions: Klebsiella pneumoniae; K. pneumoniae 5096; read-out: MIC
Method in brief: as §1

S. pyogenes 4 = experiment: In vitro antibacterial activity (MIC); conditions: Streptococcus pyogenes, 4, S. pyogenes 4; read-out: MIC
Method in brief: as §1

S. pneumoniae SC = experiment: In vitro antibacterial activity (MIC); conditions: Streptococcus pneumoniae, read-out: MIC
Method in brief: as §1

P. rettgeri ATCC 9250 = experiment: In vitro antibacterial activity (MIC); conditions: Providencia rettgeri, ATCC9250, P. rettgeri ATCC 9250; read-out: MIC
Method in brief: as §1

S. marcescens S4 = experiment: In vitro antibacterial activity (MIC); conditions: Serratia marcescens, S4, S. marcescens S4; read-out: MIC
Method in brief: as §1

S. marcescens S714 = experiment: In vitro antibacterial activity (MIC); conditions: Serratia marcescens, S714, S. marcescens S714; read-out: MIC
Method in brief: as §1

S. marcescens S3 = experiment: In vitro antibacterial activity (MIC); conditions: Serratia marcescens; S. marcescens S3; read-out: MIC
Method in brief: as §1

S. schottmuelleri = experiment: In vitro antibacterial activity (MIC)
Method in brief: as §1

Measured: MIC

CC1(C)S[C@@H]2[C@H](N=CN3CCC(Cn4ccnc4CN)CC3)C(=O)N2[C@H]1C(=O)O [J, [2S-(2alpha,5alpha,6beta)]-6-[[[4-[[2-(aminomethyl)-1H-imidazol-1-yl]methyl]-1-piperidinyl]methylene]amino]-3,3-dimethyl-7-oxo-4-thia-1-azabicyclo[3.2.0]heptane-2-carboxylic acid hydrochloride]
128 µg/mL: P. aeruginosa 6148B | K. pneumoniae 5096
1 µg/mL: E. aerogenes 83 | P. mirabilis 90 | E. cloacae 214 | S. marcescens 5805 | S. marcescens S4
0.125 µg/mL: E. coli 257 | C. freundii 8ASM | P. vulgaris ATCC 6380
> 128 µg/mL: P. aeruginosa POW 151 | P. mirabilis 620A | K. pneumoniae HE7 | P. aeruginosa 503-820 | P. aeruginosa 8780 | S. aureus 1059B | P. aeruginosa 5712
8 µg/mL: S. aureus Smith | P. vulgaris 101 | S. aureus Giorgio | E. cloacae P99 | P. mirabilis 2 | K. pneumoniae 503-994 | P. vulgaris 100 | E. aerogenes 503-478 | P. mirabilis 503-1136
0.5 µg/mL: E. aerogenes 8 | S. marcescens SM | E. cloacae 24 | K. pneumoniae 4964 | E. cloacae 9570A | S. marcescens S5 | P. mirabilis 190 | S. marcescens S714
0.062 µg/mL: K. pneumoniae A | S. schottmuelleri
0.25 µg/mL: S. marcescens S2 | S. marcescens S147 | S. marcescens S3
16 µg/mL: P. rettgeri ATCC 9250
4 µg/mL: K. pneumoniae 8357 | E. cloacae 5699 | E. cloacae 9295 | S. pyogenes 4 | S. pneumoniae SC

Cc1nc(C)n(CCCC2CCN(C=N[C@@H]3C(=O)N4[C@@H]3SC(C)(C)[C@@H]4C(=O)O)CC2)c1C [E, [2S-(2alpha,5alpha,6beta)]-6[[4-[3-[(2,4,5-trimethyl-1H-imidazol-1-yl)propyl]-1-piperidinyl]methylene]amino]-3,3-dimethyl-7-oxo-4-thia-1-azabicyclo[3.2.0]heptane-2-carboxylic acid hydrate hydrochloride]
1 µg/mL: K. pneumoniae 4964 | E. aerogenes 503-478 | S. marcescens S5 | S. marcescens S714
> 128 µg/mL: P. aeruginosa POW 151 | P. aeruginosa 6148B | K. pneumoniae HE7 | P. aeruginosa 503-820 | P. aeruginosa 8780 | P. aeruginosa 5712 | K. pneumoniae 5096
0.25 µg/mL: E. cloacae 9295 | P. mirabilis 190 | S. marcescens S3
0.062 µg/mL: E. coli 257 | K. pneumoniae A | K. pneumoniae 8357 | P. vulgaris ATCC 6380 | K. pneumoniae 503-994 | S. schottmuelleri; read-out: MIC
4 µg/mL: P. vulgaris 101 | P. mirabilis 503-1136
128 µg/mL: P. mirabilis 620A
32 µg/mL: E. aerogenes 8
0.5 µg/mL: E. aerogenes 83 | E. cloacae 24 | P. mirabilis 90 | P. mirabilis 2 | E. cloacae 214 | S. marcescens 5805 | S. marcescens S2 | S. marcescens S147 | S. pyogenes 4 | S. pneumoniae SC | P. rettgeri ATCC 9250 | S. marcescens S4
< 0.008 µg/mL: C. freundii 8ASM
64 µg/mL: S. aureus 1059B
8 µg/mL: S. aureus Smith | S. aureus Giorgio | P. vulgaris 100
0.125 µg/mL: S. marcescens SM | E. cloacae P99 | E. cloacae 9570A | E. cloacae 5699

Source: US4605744A, “Imidazole derivatives” (Hoffmann-La Roche Inc., priority 1985, dated 1986)
